From patent US20160166598A1, “A METHOD FOR TREATING INFECTION, SEPSIS AND INJURY” (priority 2013, published 2016)

Columns and labels:
[1] = humans, oral and/or intravenous 10, 25, 50, 100 mg/kg; cited from earlier work
human NK(1) receptor = human NK(1) receptor (Homo sapiens, UniProt P25103); settings: cited from earlier work
[2] = test system: isolated guinea-pig mesenteric artery; assay: Relaxation of isolated mesenteric artery, pressure myograph (Ex 4); settings: for relaxation / artery diameter: endothelium present (adenosine, AL: with or without); for relaxation of isolated intact mesenteric artery: luminal or abluminal, 0.001 to 1 mM
Procedure: Male guinea pigs (250-300 g) were anesthetised and placed in a cradle and the abdomen opened. Second order mesenteric artery branches were isolated and mounted in a pressure myograph (see FIG. 4) under constant pressure of 60 mmHg and perfusion (luminal flow) of 100 uL/min with Krebs-Henseleit buffer (37° C.). Artery diameter was continuously measured using videomicroscopy (see FIG. 4). For the relaxation/vasodilation experiments arteries were equilibrated and then constricted with 10^−8 M arginine vasopressin (AVP). Adenosine, lidocaine or adenosine-lidocaine together were administered 2) luminally and 2) abluminally and concentration curves were obtained. Stock solutions of adenosine and lidocaine alone or adenosine-lidocaine combined were made in deionized water to 20 mM. A range of volumes were pipetted to provide contact concentrations with the vessel lumen or outer wall that ranged from 0.001 to 1 mM. At the end of experiments, arteries were dilated using calcium-free solution to obtain 100% relaxation. A number of arteries were denuded by introducing 5 ml air into the lumen with flow rate 1000 μl/min. The air outflow was then clamped until the intraluminal pressure reached 70 mmHg, flow rate was reduced to 2 μl/min and the vessel remained pressurized for 10 minutes

Sequence of human NK(1) receptor (P25103 whole entry): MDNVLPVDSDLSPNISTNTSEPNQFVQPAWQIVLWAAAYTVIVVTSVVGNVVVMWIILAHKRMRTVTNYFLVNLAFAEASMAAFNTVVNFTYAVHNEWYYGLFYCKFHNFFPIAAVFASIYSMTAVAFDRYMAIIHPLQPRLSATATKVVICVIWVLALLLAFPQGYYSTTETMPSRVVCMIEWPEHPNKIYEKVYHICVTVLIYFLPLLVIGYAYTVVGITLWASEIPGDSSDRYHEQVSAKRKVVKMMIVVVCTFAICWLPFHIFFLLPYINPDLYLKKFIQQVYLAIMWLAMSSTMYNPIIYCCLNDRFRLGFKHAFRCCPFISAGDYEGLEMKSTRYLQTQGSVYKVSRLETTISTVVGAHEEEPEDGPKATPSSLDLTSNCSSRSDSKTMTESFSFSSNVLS

Structure (SMILES) | relaxation / artery diameter [2] | relaxation of isolated intact mesenteric artery [2] | also measured
NC(=O)c1ncn([C@@H]2O[C@H](CO)[C@@H](O)[C@H]2O)c1N [Acadesine, 5-amino-4-imidazole carboxamide ribonucleoside] | – | – | safety [1]: safe in humans
Cc1cccc(C)c1NC(=O)CN1CCN(C2CCN(C(=O)c3cc(C(F)(F)F)cc(C(F)(F)F)c3)C(Cc3ccccc3)C2)CC1 (centres unmarked) [R116301] | – | – | Ki (human NK(1) receptor): 450 pM; selectivity toward NK(2) and NK(3) receptors (human NK(1) receptor): over 200 fold
Nc1ncnc2c1ncn2[C@@H]1O[C@H](CO)[C@@H](O)[C@H]1O [adenosine] | relaxed the mesenteric artery in a dose dependent manner | increased relaxation | –
CCN(CC)CC(=O)Nc1c(C)cccc1C [lidocaine] | did not significantly change mesenteric artery diameter | failed to produce relaxation | relaxation ([2]; endothelium absent): relaxed the artery
